How the values were obtained:
Type in all cases: functional, cell-based
HL-60 = assay: Cytotoxicity against human HL60 cells after 24 hrs by MTT assay; settings: HL-60, 24 h
MCF7 = assay: Cytotoxicity against human MCF7 cells after 24 hrs by MTT assay; settings: MCF7, 24 h
COLO 205 = assay: Cytotoxicity against human COLO205 cells after 24 hrs by MTT assay; settings: COLO 205, 24 h
THP-1 = assay: Cytotoxicity against human THP1 cells after 24 hrs by MTT assay; settings: THP-1, 24 h
U-937 = assay: Cytotoxicity against human U937 cells after 24 hrs by MTT assay; settings: U-937, 24 h

Structure (SMILES) | IC50 (HL-60) | IC50 (MCF7) | IC50 (COLO 205) | IC50 (THP-1) | IC50 (U-937)
CC(C)(C)c1ccc(-c2nn(CCCN3CCN(c4cccc(Cl)c4)CC3)c(=S)[nH]2)cc1 | > 300 µM | > 300 µM | > 300 µM | > 300 µM | > 300 µM
Cc1ccc(-c2nn(CCCN3CCN(c4cccc(Cl)c4)CC3)c(=S)[nH]2)cc1 | > 300 µM | > 300 µM | > 300 µM | > 300 µM | > 300 µM
COc1ccc(-c2nn(CCCN3CCOCC3)c(=S)[nH]2)cc1OC | > 300 µM | > 300 µM | > 300 µM | > 300 µM | > 300 µM
CCN1CCN(CCCn2nc(-c3ccc(OC)c(OC)c3)[nH]c2=S)CC1 | > 300 µM | > 300 µM | > 300 µM | > 300 µM | > 300 µM
CCN1CCN(CCCSc2nnc(-c3ccc(C)cc3)[nH]2)CC1 | > 300 µM | > 300 µM | > 300 µM | > 300 µM | > 300 µM
Clc1ccc(-c2nnc(SCCCN3CCN(c4cccc(Cl)c4)CC3)[nH]2)cc1 | > 300 µM | > 300 µM | > 300 µM | > 300 µM | > 300 µM
CCN1CCN(CCCSc2nnc(-c3ccccc3Cl)[nH]2)CC1 | > 300 µM | > 300 µM | > 300 µM | > 300 µM | > 300 µM
Clc1ccccc1-c1nnc(SCCCN2CCN(c3ccccn3)CC2)[nH]1 | > 300 µM | > 300 µM | > 300 µM | > 300 µM | > 300 µM
COc1ccc(-c2nn(CCCN3CCN(c4ccccn4)CC3)c(=S)[nH]2)cc1 | 115 µM | > 300 µM | > 300 µM | > 300 µM | > 300 µM
Fc1ccc(-c2nn(CCCN3CCN(Cc4ccccc4)CC3)c(=S)[nH]2)cc1 | > 300 µM | 128 µM | 111 µM | 160 µM | > 300 µM
S=c1[nH]c(-c2ccc(Cl)cc2)nn1CCCN1CCN(c2cccc(Cl)c2)CC1 | 6.67 µM | > 300 µM | > 300 µM | > 300 µM | 28.2 µM
CC(C)(C)c1ccc(-c2nn(CCCN3CCN(c4ccccc4)CC3)c(=S)[nH]2)cc1 | > 300 µM | > 300 µM | > 300 µM | 147 µM | 88.9 µM
c1ccc(Cc2nnc(SCCCN3CCN(c4ccccn4)CC3)[nH]2)cc1 | > 300 µM | > 300 µM | > 300 µM | > 300 µM | 163 µM
Clc1cccc(-c2nnc(SCCCN3CCN(c4ncccn4)CC3)[nH]2)c1 | 18.5 µM | > 300 µM | > 300 µM | > 300 µM | 49.1 µM
Cc1cccc(-c2nnc(SCCCN3CCN(c4ccccn4)CC3)[nH]2)c1 | 29.4 µM | > 300 µM | > 300 µM | > 300 µM | 52.3 µM
Cc1cccc(-c2nnc(SCCCN3CCN(c4ccccc4)CC3)[nH]2)c1 | > 300 µM | > 300 µM | > 300 µM | 248 µM | > 300 µM
Fc1ccc(-c2nnc(SCCCN3CCN(Cc4ccccc4)CC3)[nH]2)cc1 | > 300 µM | 184 µM | 181 µM | 255 µM | 124 µM
Clc1ccc(-c2nnc(SCCCN3CCN(c4ncccn4)CC3)[nH]2)cc1 | 105 µM | > 300 µM | > 300 µM | > 300 µM | 102 µM
Cc1ccc(-c2nnc(SCCCN3CCN(c4cccc(Cl)c4)CC3)[nH]2)cc1 | > 300 µM | > 300 µM | 139 µM | > 300 µM | 257 µM
CC(C)(C)c1ccc(-c2nnc(SCCCN3CCN(c4ccccc4)CC3)[nH]2)cc1 | > 300 µM | > 300 µM | > 300 µM | 97.6 µM | 49.3 µM
CC(C)(C)c1ccc(-c2nnc(SCCCN3CCOCC3)[nH]2)cc1 | > 300 µM | 287 µM | 155 µM | > 300 µM | 156 µM
COc1cc([C@@H]2c3cc4c(cc3[C@@H](O[C@@H]3O[C@@H]5CO[C@@H](C)O[C@H]5[C@H](O)[C@H]3O)[C@H]3COC(=O)[C@H]23)OCO4)cc(OC)c1O [ETOPOSIDE] | 1.84 µM | 29.5 µM | – | – | 10.4 µM

Reference: ChEMBL document CHEMBL2434906, “Synthesis, characterization, and anticancer studies of S and N alkyl piperazine-substituted positional isomers of 1,2,4-triazole derivatives” (Med Chem Res, 2013)
